Activity calls are given as the source filed them.
Experiments:
[1] = inhibitors of Bluetongue virus cytopathic effect, confirmation, arbovirus, BSR cells (AID 1250); format: functional;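 also: protection from viral cytopathic effect measured as cell viability by ATP luminescence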
[2] = CEM21 lymphoblast cell cytotoxicity, dose response, cytotoxicity control for viral fusion inhibitor project, CellTiter-Glo luminescence, cherry-picked (AID 652042); format: functional, cell-based;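 also: potency for signal decrease meaning cytotoxicity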
HEK293 = assay: inhibitors of LMP1-driven NF-kB reporter, dose response, cell-based, HEK293, luciferase, cherry-pick (AID 588343); format: functional; conditions: Homo sapiens
Interleukin-8 = Interleukin-8 (Homo sapiens, UniProt P10145); assay: Dose Response confirmation of uHTS small molecule hits for cystic fibrosis induced NFkb Inhibitors in a PAF-induced IL8 counterscreen.; format: functional; conditions: read-out: IC50_Mean
[3] = inhibitors of clade B AD8 Env fusion, dose response, cell-based, cherry-pick (AID 652062); format: functional;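 also: luciferase signal from cell-cell fusion driven by HIV-1 clade B AD8 Env; potency is for inhibitors of fusion seen as a drop in luminescence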
[4] = ZM109 Env clade C HIV-1 fusion inhibitors, dose response, HeLa effector, CEM target cells, luciferase, cherry-pick (AID 652058); format: functional, cell-based
[5] = inhibitors of HIV Env-driven cell fusion, dose response, cherry-pick (AID 652057); format: functional, cell-based
[6] = off-target signal loss in HeLa-CEM21 co-culture – HeLa F-luc CTL cells, cherry-picked, counter-screen for HIV-1 Env fusion inhibitor project, dose response (AID 652040); format: functional, cell-based;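 also: potency for signal decrease marking cytotoxic or nonspecific inhibition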
[7] = molecular target: T1, Small ubiquitin-related modifier 2 (Homo sapiens, UniProt P61956); assay: SUMO2–SIM peptide binding inhibitors, dose response, selectivity assay for SUMO1 interaction inhibitor project, biochemical, fluorescence polarization, uHTS hits (AID 624385); format: functional; conditions: read-out: IC50_Mean
Streptokinase A = molecular target: T2, Streptokinase A (Streptococcus pyogenes serotype M1, UniProt P10520); assay: S. pyogenes streptokinase expression inhibitors, potency, dose response, plasminogen activation absorbance, OD405 (AID 1914); format: functional, Streptococcus pyogenes M1 GAS;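 also: secreted streptokinase activity via plasminogen activation per viability signal from cell pellet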
T2 sequence (P10520 whole entry): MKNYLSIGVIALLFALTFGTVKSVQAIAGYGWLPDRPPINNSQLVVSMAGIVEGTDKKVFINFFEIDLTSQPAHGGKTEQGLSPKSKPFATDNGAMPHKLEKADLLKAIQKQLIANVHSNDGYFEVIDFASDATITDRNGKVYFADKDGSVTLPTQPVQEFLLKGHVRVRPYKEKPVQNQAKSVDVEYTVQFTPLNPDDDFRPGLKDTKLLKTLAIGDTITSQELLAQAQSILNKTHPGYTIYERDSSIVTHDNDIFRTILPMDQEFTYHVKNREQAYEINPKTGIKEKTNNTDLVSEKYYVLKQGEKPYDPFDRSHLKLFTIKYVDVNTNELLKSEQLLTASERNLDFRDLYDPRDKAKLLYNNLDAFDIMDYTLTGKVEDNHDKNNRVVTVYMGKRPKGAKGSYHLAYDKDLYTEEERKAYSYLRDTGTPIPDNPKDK

[8] = molecular target: T3, Small ubiquitin-related modifier 1 (Homo sapiens, UniProt P63165); assay: inhibitors of SUMO1 peptide binding, dose response, biochemical, fluorescence polarization, uHTS hits (AID 624382); format: functional; conditions: read-out: IC50_Mean
Streptococcus = assay: Group A Streptococcus viability loss, dose response, counter-screen for streptokinase expression inhibitor project, luminescence, BacTiterGlo (AID 1915); format: functional, organism-based;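 also: potency for reduction of bacterial viability or growth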
[9] = molecular target: T3, Small ubiquitin-related modifier 1; assay: inhibitors of SUMO1 partner interactions, dose response, biochemical, FRET (AID 624383); format: functional; conditions: read-out: IC50_Mean
[10] = HEp-2 cell cytotoxicity, dose response, cytotoxicity control for RSV inhibitor project, HTS (AID 2410); format: functional; conditions: human respiratory syncytial virus
[11] = test system: Streptococcus sp. 'group A'; assay: growth inhibition of control SK(-) GAS strain, dose response, counter-screen for streptokinase expression inhibitor project, luminescence, kanamycin, BacTiterGlo, confirmation (AID 1900); format: functional, organism-based
[12] = molecular target: T1, Small ubiquitin-related modifier 2; assay: inhibitors of SUMO2 protein-protein interaction, dose response, selectivity assay for SUMO1 interaction inhibitor project, biochemical, FRET, human SUMO2, uHTS hits (AID 624384); format: functional; conditions: read-out: IC50_Mean
[13] = molecular target: Induced myeloid leukemia cell differentiation protein Mcl-1 (Homo sapiens, UniProt Q07820); format: functional
[14] = Counterscreen for inhibitors of Trypanosoma brucei methionyl tRNA synthetase (MetRS): Luminescence-based cell-based high throughput dose response assay to identify compounds that are cytotoxic to Jurkat human T lymphocyte cells.; format: functional
HeLa = assay: HeLa cell cytotoxicity, dose response, cytotoxicity control for MITF activator project, CellTiter-Glo luminescence, cherry-pick samples (AID 540259); format: functional, cell-based; conditions: Homo sapiens
Coagulation factor XII = molecular target: T4, Coagulation factor XII (Homo sapiens, UniProt P00748); format: functional;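 also: activated factor XIIa alpha cleaving a fluorogenic AMC peptide substrate; inhibitor potency from loss of enzyme activity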
T4 sequence (P00748 whole entry): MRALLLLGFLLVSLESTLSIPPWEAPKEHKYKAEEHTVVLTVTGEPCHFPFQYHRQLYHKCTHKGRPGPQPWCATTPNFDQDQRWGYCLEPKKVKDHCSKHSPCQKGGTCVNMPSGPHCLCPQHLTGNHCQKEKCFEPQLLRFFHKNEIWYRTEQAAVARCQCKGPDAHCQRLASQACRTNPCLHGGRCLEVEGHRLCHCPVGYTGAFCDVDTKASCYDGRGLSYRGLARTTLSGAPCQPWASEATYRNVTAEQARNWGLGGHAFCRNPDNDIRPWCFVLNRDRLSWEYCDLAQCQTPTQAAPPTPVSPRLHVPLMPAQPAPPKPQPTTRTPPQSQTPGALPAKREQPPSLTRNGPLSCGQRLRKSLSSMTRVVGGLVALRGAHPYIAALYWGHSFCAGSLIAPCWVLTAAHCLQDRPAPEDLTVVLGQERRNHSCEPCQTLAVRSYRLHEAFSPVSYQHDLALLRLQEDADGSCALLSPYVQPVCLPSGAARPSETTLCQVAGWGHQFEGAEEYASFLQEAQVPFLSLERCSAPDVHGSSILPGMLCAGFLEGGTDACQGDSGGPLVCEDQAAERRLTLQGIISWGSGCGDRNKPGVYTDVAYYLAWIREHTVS

[15] = molecular target: T5, Methionyl-tRNA synthetase, putative (Trypanosoma brucei brucei, UniProt Q38C91); format: functional, Trypanosoma brucei brucei strain 927/4 GUTat10.1
[16] = molecular target: T5, Methionyl-tRNA synthetase, putative; format: functional, Trypanosoma brucei brucei strain 927/4 GUTat10.1; remark: listed apart in the source
[17] = cytotoxicity toward NIH3T3 fibroblasts, dose response, counter-screen, cell-based, ATP luminescence, mouse fibroblasts (AID 2010); format: functional;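 also: cells exposed to compound for about 90 hours before reading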
[18] = inhibitors of intracellular T. cruzi replication, confirmation, NIH3T3 host cells, beta-gal luminescence (AID 2044); format: functional, cell-based;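 also: intracellular parasites grown in NIH/3T3 mouse fibroblasts as host cells; luminescent beta-galactosidase reporter signal from transgenic T. cruzi replicating inside host cells; inhibitors lower the luminescence signal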
[19] = molecular target: Photoreceptor-specific nuclear receptor (Homo sapiens, UniProt Q9Y5X4); format: functional, cell-based;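 also: CHO-S cells with Gal4-NCOR and VP16-NR2E3 two-hybrid luciferase reporter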
[20] = CRF-BP/CRF-R2 complex antagonists, dose response, cell-based, uHTS hits, 384-well (AID 651639); format: functional, Homo sapiens; conditions: read-out: IC50_Mean
[21] = molecular target: T6, Corticotropin-releasing factor receptor 2/Corticotropin-releasing factor-binding protein (Homo sapiens, UniProt P24387+Q13324); assay: activators of CRF receptor 2 with binding protein – uHTS hits, confirmation (AID 602473); format: functional; conditions: read-out: EC50_Mean
T6 sequence (Q13324 whole entry): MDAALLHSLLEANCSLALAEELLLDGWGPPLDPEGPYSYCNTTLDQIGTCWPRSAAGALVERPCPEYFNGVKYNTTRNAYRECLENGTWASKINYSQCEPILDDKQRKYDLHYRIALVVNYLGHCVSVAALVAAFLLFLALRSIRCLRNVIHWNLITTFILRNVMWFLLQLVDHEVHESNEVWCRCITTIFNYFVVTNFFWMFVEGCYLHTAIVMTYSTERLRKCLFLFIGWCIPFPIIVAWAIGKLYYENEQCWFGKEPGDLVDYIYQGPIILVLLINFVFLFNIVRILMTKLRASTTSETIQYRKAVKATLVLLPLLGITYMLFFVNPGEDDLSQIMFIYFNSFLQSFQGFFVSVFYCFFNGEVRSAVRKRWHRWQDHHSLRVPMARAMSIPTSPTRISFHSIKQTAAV
T6 sequence (P24387 whole entry): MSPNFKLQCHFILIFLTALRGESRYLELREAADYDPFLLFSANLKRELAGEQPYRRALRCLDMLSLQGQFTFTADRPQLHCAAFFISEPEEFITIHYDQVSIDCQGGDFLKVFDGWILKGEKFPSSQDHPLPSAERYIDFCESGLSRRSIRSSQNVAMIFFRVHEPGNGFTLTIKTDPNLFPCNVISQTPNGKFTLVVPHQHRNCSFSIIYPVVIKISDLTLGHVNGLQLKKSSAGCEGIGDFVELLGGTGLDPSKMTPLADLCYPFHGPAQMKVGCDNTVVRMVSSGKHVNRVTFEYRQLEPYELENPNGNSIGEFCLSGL

[22] = molecular target: T6, Corticotropin-releasing factor receptor 2/Corticotropin-releasing factor-binding protein; assay: Dose Response confirmation of uHTS hits for small molecule antagonists of the CRF-binding protein and CRF-R2 receptor complex.; format: functional; conditions: read-out: IC50_Mean
[23] = microbe, parasite or virus in culture; format: functional; conditions: Mycobacterium tuberculosis
[24] = molecular target: V-type proton ATPase subunit c' (Saccharomyces cerevisiae S288c, UniProt P32842); assay: Dose Response of Small Molecules that Regulate V-ATPase Proton Transport in Yeast using pHLuorin, Cherry Pick 2.; format: functional; conditions: read-out: EC50_MICROM
Chain of V-type proton ATPase subunit c' (P32842 whole entry): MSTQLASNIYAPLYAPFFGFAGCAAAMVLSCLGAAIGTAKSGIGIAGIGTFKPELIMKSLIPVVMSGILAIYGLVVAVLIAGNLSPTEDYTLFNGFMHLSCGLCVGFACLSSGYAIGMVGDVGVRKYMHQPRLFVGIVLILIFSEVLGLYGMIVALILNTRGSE

T1 sequence (P61956 whole entry): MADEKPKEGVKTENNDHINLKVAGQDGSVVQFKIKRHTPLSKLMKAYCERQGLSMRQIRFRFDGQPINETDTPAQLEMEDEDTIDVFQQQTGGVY
T5 sequence (Q38C91 whole entry): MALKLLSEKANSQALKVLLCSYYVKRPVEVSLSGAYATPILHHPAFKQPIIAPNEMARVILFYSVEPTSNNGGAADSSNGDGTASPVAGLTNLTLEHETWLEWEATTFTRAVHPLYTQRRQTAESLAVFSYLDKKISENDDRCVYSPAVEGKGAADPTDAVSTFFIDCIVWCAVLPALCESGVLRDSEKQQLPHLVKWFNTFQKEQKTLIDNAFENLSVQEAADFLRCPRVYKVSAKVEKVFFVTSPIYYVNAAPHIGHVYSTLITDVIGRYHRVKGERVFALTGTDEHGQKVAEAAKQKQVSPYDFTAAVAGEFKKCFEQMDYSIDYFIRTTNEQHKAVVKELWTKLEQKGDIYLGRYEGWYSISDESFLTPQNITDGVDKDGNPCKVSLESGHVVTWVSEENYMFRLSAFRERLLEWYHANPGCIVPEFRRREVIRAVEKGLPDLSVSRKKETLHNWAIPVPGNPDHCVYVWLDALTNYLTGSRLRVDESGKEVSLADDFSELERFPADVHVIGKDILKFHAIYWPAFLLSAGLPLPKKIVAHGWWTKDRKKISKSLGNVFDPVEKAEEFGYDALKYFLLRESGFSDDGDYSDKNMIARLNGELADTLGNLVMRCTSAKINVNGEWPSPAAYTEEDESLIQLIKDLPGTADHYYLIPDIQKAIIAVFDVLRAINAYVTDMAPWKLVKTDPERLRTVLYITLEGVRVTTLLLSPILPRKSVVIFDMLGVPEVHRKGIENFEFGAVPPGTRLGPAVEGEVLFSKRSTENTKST
T3 sequence (P63165 whole entry): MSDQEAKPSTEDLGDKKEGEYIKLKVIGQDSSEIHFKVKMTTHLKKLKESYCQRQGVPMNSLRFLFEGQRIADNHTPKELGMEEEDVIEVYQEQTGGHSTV
Chain of Interleukin-8 (P10145 whole entry, the tested form may be a part): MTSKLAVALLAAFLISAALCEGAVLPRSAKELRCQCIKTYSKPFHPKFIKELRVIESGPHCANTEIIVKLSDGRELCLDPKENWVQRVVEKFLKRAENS
Chain of Induced myeloid leukemia cell differentiation protein Mcl-1 (Q07820 whole entry): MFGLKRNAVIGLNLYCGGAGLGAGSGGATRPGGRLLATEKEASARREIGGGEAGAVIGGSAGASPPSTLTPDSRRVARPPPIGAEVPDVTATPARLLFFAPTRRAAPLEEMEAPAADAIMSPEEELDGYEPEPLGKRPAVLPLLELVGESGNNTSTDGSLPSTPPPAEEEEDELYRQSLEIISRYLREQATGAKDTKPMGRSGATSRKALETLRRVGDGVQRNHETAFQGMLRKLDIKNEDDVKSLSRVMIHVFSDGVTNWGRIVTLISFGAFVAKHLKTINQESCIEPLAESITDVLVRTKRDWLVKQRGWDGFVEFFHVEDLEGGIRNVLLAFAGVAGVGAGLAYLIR
Chain of Photoreceptor-specific nuclear receptor (Q9Y5X4 whole entry, the tested form may be a part): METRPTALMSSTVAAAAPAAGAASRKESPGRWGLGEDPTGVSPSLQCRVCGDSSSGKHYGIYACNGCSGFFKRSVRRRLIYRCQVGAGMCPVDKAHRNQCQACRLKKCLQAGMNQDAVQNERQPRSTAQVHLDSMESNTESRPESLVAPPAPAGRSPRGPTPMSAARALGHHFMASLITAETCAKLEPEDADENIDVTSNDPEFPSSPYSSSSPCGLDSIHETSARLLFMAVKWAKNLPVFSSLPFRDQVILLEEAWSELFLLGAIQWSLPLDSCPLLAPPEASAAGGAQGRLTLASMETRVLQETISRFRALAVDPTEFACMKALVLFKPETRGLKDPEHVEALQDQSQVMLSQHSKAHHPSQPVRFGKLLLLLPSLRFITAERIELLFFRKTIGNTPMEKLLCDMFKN

In the case of `Clc1ccccc1C1=Nn2c(nnc2-c2ccncc2)SC1`, the IC50 [1] is reported as 22.6 µM (active), the AC50 [2] is reported as 63.6 µM (active) and the AC50 (HEK293) is reported as 14.2 µM (active). The IC50 (Interleukin-8) was 8.72 µM (active), the AC50 [3] was 1.83 µM (active) and the AC50 [4] was 1.45 µM (active). For the same compound, the AC50 [5] was 3.15 µM (active) and the AC50 [6] was 1.96 µM (active).
For `COc1ccc(O)c(C(=O)c2cc(SCC(=O)O)c3nc4sc5c(c4c(=O)n3c2)CCCC5)c1`, the IC50 [7] was 6.24 µM (active), the EC50 (Streptokinase A) was 16.4 µM (inconclusive) and the IC50 [8] was 2.14 µM (active). The EC50 (Streptococcus) was 18.5 µM (inconclusive), the IC50 [9] was 51.6 µM (inactive) and the CC50 [10] was 29.1 µM (active). The EC50 [11] was 2.67 µM (active), the IC50 [12] was 46.2 µM (inactive) and the IC50 [13] was 1.49 µM (active).
For `O=C(Cn1c(/C=C/c2ccccc2)nc2ccccc21)Nc1ccc(F)cc1`, the IC50 [14] was 83.3 µM (inactive), the AC50 (HeLa) was 301 µM (active) and the IC50 (Coagulation factor XII) was > 50 µM (inactive). The IC50 [15] was 12.2 µM (inactive) and the IC50 [16] was 8.74 µM (active).
With `CCc1nnc(NC(=O)c2ccc(S(=O)(=O)N3CCCc4ccccc43)cc2)o1` the EC50 (Streptokinase A) was > 150 µM (not active), the EC50 [17] was 5.54 µM (active) and the EC50 (Streptococcus) was 13.3 µM (active). For the same compound, the EC50 [18] was 2.19 µM (active), the EC50 [11] was 1.21 µM (active) and the IC50 [19] was 4.33 µM (active).
For `Cc1cccc(N(C(=O)c2nsc(Cl)c2Cl)C(C(=O)NC2CCCC2)c2ccc(O)cc2)c1C` (stereo not drawn), the IC50 [20] was > 20 µM (inactive), the EC50 [21] was > 53 µM (inactive) and the IC50 [22] was 6.4 µM (active). The CC50 [23] was 39 µM (active).
For `O=C1C=CC(=Nc2ccc3c(c2)Cc2cc(F)ccc2-3)O1`, the EC50 [24] was 7.26 µM (active).
